Results: patent publication US4025623A, “4'-Epi-6'-hydroxyadriamycin and method of use” (priority 1974, dated 1977)
In brackets after ≈: the same amount, converted by molar mass. Read-outs that look alike come from different tables or passages of the source.

Assays:
[1] = MEF proliferation (uninfected mouse embryo fibroblasts, in vitro); assay type: cell-based; conditions: time of exposure 72 hours, read-out: ID50 MEF proliferation
Experimental: (§1) (2) Mouse embryo fibroblasts (MEF) were plated on 35 mm. Falcon plastic dishes, infected 24 hours later with Moloney Sarcoma virus (MSV), and treated for 3 days with different concentrations of the compounds of the invention. The number of foci of transformed cells was microscopically ascertained 5 days after the infection. Uninfected MEF were similarly treated, and at the end of the test, the cells were counted in a hemocytometer. In all the tests, the cells were incubated in a 5% CO2 incubator at 37° C.
(§2) The test compounds were dissolved in distilled water and then diluted in culture medium.

[2] = system: ascites Sarcoma 180; test: Antitumor activity on ascites Sarcoma 180 in CD 1 mice; assay type: in vivo; conditions: for LTS, Long Term survivors: after 60 days; for T/C, median survival time as % over controls: 1 treatment i.p. at day 1
Experimental: (§3) The antitumor activity of the compounds of the invention was tested on ascites Sarcoma 180. 3 month old CD 1 mice were used. Sarcoma 180 ascites cells were inoculated intraperitoneally (10^6 cells/mouse).
(§4) The test compounds were dissolved in distilled water, then diluted in Ringer's solution, and administered intraperitoneally 1 day after the tumor implant (10 ml./kg. of body weight). The toxicity of the test compounds was evaluated by macroscopic autoptic examination, mainly in terms of reduction in spleen size. The comparison of the effectiveness of the tested compounds is based on the maximum increase in median survival time, as compared to untreated controls, over the dose range used. The number of Long Term Survivors (LTS) refers to tumor-free mice at the end of the test (60 days).

[3] = Toxicity in Sarcoma 180 bearing CD 1 mice (toxic deaths, autopsy); assay type: in vivo
Experimental: as §3, §4

[4] = system: HeLa cells; test: HeLa cells cloning efficiency (in vitro); assay type: cell-based; conditions: for IC50: Homo sapiens, HeLa, read-out: ID50 HeLa cells cloning efficiency
Experimental: (1) HeLa cells were exposed to each of compounds (I) and (V) for 2, 8 and 24 hours, after which the compounds were removed and the cells seeded on […]. Falcon plastic dishes (200 cells/plate) in a growth medium. The number of colonies was ascertained microscopically 5 days later.
as §2
(§5) The results are reported in Table I as ID50 (Inhibiting Dose 50%), calculated on dose-effects lines.

[5] = system: Moloney Sarcoma virus (MSV); test: MSV foci formation in mouse embryo fibroblasts (in vitro); assay type: cell-based; conditions: Fibroblast, read-out: ID50 MSV foci formation
Experimental: as §1, §2, §5

SMILES | CC50 at 72 h [1] [µg/mL] | LTS, Long Term survivors ([2]; 0.5 mg./kg. i.p. at day 1) | T/C, median survival time as % over controls ([2]; 0.5 mg./kg.) [%] | LTS, Long Term survivors ([2]; 1 mg./kg. i.p. at day 1) | T/C, median survival time as % over controls ([2]; 1 mg./kg.) [%] | LTS, Long Term survivors ([2]; 2 mg./kg. i.p. at day 1) | T/C, median survival time as % over controls ([2]; 2 mg./kg.) [%] | T/C, median survival time as % over controls ([2]; 5 mg./kg.) [%] | Toxicity, number of mice which died as a result of the toxic effects of the compound ([3]; 5 mg./kg. i.p. at day 1) | IC50 ([4]; 2 h) [µg/mL] | IC50 ([4]; 8 h) [µg/mL] | IC50 ([4]; 24 h) [µg/mL] | IC50 ([5]; 72 h) [µg/mL] | LTS, Long Term survivors ([2]; 10 mg./kg. i.p. at day 1) | T/C, median survival time as % over controls ([2]; 10 mg./kg.) [%] | further results
COc1cccc2c1C(=O)c1c(O)c3c(c(O)c1C2=O)C[C@@](O)(C(C)=O)C[C@@H]3O[C@H]1C[C@H](N)[C@H](O)[C@H](C)O1 [Daunomycin, daunomycin] | 0.009 (≈ 0.0171 µM) | 3/20 | 146 | 8/55 | 172 | 11/68 | 192 | 176 | 14/50 | 0.03 (≈ 0.0569 µM) | 0.013 (≈ 0.0246 µM) | 0.003 (≈ 0.00569 µM) | 0.0055 (≈ 0.0104 µM) |  |  | T/C, median survival time as % over controls ([2]; 8 mg./kg.): 78%; Toxicity, number of mice which died as a result of the toxic effects of the compound ([3]; 8 mg./kg. i.p. at day 1): 7/10
COc1cccc2c1C(=O)c1c(O)c3c(c(O)c1C2=O)C[C@@](O)(C(=O)CO)C[C@@H]3O[C@H]1C[C@H](N)[C@H](O)[C@H](C)O1 [Adriamycin, adriamycin] | 0.007 (≈ 0.0129 µM) | 1/10 | 142 | 25/159 | 183 | 30/125 | 210 | 243 | 7/125 | 0.28 (≈ 0.515 µM) | 0.11 (≈ 0.202 µM) | 0.018 (≈ 0.0331 µM) | 0.0025 (≈ 0.0046 µM) | 18/139 | 212 | LTS, Long Term survivors ([2]; 5 mg./kg. i.p. at day 1): 27/125; Toxicity, number of mice which died as a result of the toxic effects of the compound ([3]; 10 mg./kg. i.p. at day 1): 18/139
COc1cccc2c1C(=O)c1c(O)c3c(c(O)c1C2=O)C[C@@](O)(C(C)=O)C[C@@H]3O[C@H]1C[C@H](N)[C@@H](O)[C@H](CO)O1 [4'-epi-6'-hydroxydaunomycin] | 0.25 (≈ 0.46 µM) |  |  |  |  |  | 100 |  |  |  |  |  |  |  | 167 | T/C, median survival time as % over controls ([2]; 50 mg./kg.): 137%; Toxicity, number of mice which died as a result of the toxic effects of the compound ([3]; 50 mg./kg. i.p. at day 1): 1/10; IC50 ([4]; time of exposure 2 hours): > 10 µg/mL; IC50 ([4]; time of exposure 8 hours): > 10 µg/mL; IC50 ([4]; time of exposure 24 hours): 1.3 µg/mL (≈ 2.39 µM); decrease of activity as compared to parent compound ([4]; in vitro systems tested (HeLa cells, MSV foci, MEF proliferation), compared with 4'-epi-6'-hydroxyadriamycin versus adriamycin): The decrease of activity was higher; IC50 ([5]; time of exposure 72 hours): 0.1 µg/mL (≈ 0.184 µM)
COc1cccc2c1C(=O)c1c(O)c3c(c(O)c1C2=O)C[C@@](O)(C(=O)CO)C[C@@H]3O[C@H]1C[C@H](N)[C@@H](O)[C@H](CO)O1 [4'-epi-6'-hydroxyadriamycin] | 0.05 (≈ 0.0894 µM) |  |  |  |  |  |  |  |  | 0.9 (≈ 1.61 µM) | 1 (≈ 1.79 µM) | 1 (≈ 1.79 µM) | 0.025 (≈ 0.0447 µM) | 2/10 | 162 | LTS, Long Term survivors ([2]; 7.5 mg./kg. i.p. at day 1): 1/10; T/C, median survival time as % over controls ([2]; 7.5 mg./kg.): 143%; LTS, Long Term survivors ([2]; 15 mg./kg. i.p. at day 1): 2/10; T/C, median survival time as % over controls ([2]; 15 mg./kg.): 134%; Toxicity (in words) ([3]; 15 mg./kg. i.p. at day 1): not toxic
